Series [1] deals with HCV replicon (5-2 Luc replicon-comprising cells). The experiment in a line: HCV replicon assay (luciferase). As to conditions: 5-2 Luc replicon cells, luciferase readout, read-out: Replicon IC50. In kind it is cell-based, Hepatitis C virus. An outline of the steps: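 Huh7-derived 5-2 Luc replicon cells seeded 24 h at 37 °C, then exposed to compound at various concentrations for another 24 h. Luciferase quantified by Bright-Glo luminescence; IC50 = concentration giving 50% reduction in luciferase activity; reported as +/− at a 10 μM cut-off.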
Background: A replicon is a self-replicating genome or part of one, used to study replication in cells.

Series [2] can be described thus: Cytotoxicity assay (Cell Titer Glo). In kind it is cell-based. Conditions: human; 48 hr with compound, ATP-dependent Cell Titer Glo assay; read-out: IC50 in cytotoxicity assay (number of viable cells). The protocol: Compounds 67, 167, 169, 13, 1, 145, 29, 119, 63, 31, 39, 103, 123, 121, 97, 129, 79, 111, 85, 89, 109, 127, 131, 95, 47, 57, 69, 165, 161, 163, 3, 137, 15, 141, 41, 53, 33, 113, 93, 105, 77, 91, 81, 83, 35, 27, 65, 7, 135, 51, 139, 51, 49, 143, 5, 149, 11, 37, 21, 45, 61, 75, 23, 125, 73, 43, 171 and 101 were tested in a cytotoxicity assay with liver cells including an HCV replicon (5-2 Luc cells, 9–13 cells or Huh-7 cells). In the assay, cells were seeded onto 96-well plates (approx. 7500 cells/well in a volume of 90 μl) and grown for 24 hr at 37° C. On day 2, various concentrations of test compound (in a volume of 10 μl) were added to the wells and the cells were grown for an additional 48 hr at 37° C. On day 4, an ATP-dependent R-Luciferase assay (Cell Titer Glo assay) was performed to determine the number of viable cells.
Background: In ATP-based viability assays light output follows the ATP content of the culture.

pIC50: −log10 of the molar value. Read-outs that look alike come from different tables or passages of the source.

Consider `Cc1c(NC(=O)C(Cl)Cl)cccc1-c1cc(-c2c(Cl)cccc2Cl)no1` [Compound 167, 2,2-Dichloro-N-[3-[3-(2,6-dichlorophenyl)-5-isoxazolyl]-2-methylphenyl]Acetamide], for which the pIC50 in series [1] (Hepatitis C virus) is < 5.00. The IC50 at 48 h in series [2] is > 10 µM.
The corresponding values for `O=C(CCl)Nc1cccc(-c2cc(-c3c(Cl)cccc3Cl)no2)c1` [Compound 67, 2-Chloro-N-[3-[3-(2,6-dichlorophenyl)-5-isoxazolyl]phenyl]Acetamide] are > 5.00 and > 5 µM.
The like results for `O=C(Nc1cccc(-c2cc(-c3c(Cl)cccc3C3CC3)no2)c1)C(Cl)Cl` [Compound 79, 2,2-Dichloro-N-[3-[3-(2-chloro-6-cyclopropylphenyl)-5-isoxazolyl]phenyl]Acetamide] were, in that order, > 5.00 and > 10 µM.
For the compound `Cc1cccc(Cl)c1-c1cc(-c2cccc(NC(=O)C(Cl)Cl)c2)on1` [Compound 31, 2,2-Dichloro-N-[3-[3-(2-chloro-6-methylphenyl)-5-isoxazolyl]phenyl]Acetamide], the pIC50 in series [1] (Hepatitis C virus) is > 5.00. Besides, the IC50 at 48 h in series [2] was > 10 µM.
The corresponding values for `O=C(Nc1cccc(-c2cc(-c3c(O)cccc3Cl)no2)c1)C(Cl)Cl` [Compound 83, 2,2-Dichloro-N-[3-[3-(2-chloro-6-hydroxyphenyl)-5-isoxazolyl]phenyl]Acetamide] are > 5.00 and > 10 µM.
The corresponding values for `CCOc1ccccc1-c1cc(-c2cccc(NC(=O)C(Cl)Cl)c2)on1` [Compound 61, 2,2-Dichloro-N-[3-[3-(2-ethoxyphenyl)-5-isoxazolyl]phenyl]Acetamide] are > 5.00 and > 10 µM.
On to `COc1cccc(F)c1-c1cc(-c2cccc(NC(=O)C(Cl)Cl)c2)on1` [Compound 43, 2,2-Dichloro-N-[3-[3-(2-fluoro-6-methoxyphenyl)-5-isoxazolyl]phenyl]Acetamide], for which the pIC50 in series [1] (Hepatitis C virus) is > 5.00. Moreover, the IC50 at 48 h in series [2] was > 10 µM.
The corresponding values for `O=C(Nc1cccc(-c2cc(-c3c(Cl)ccc(Cl)c3Cl)no2)c1)C(Cl)Cl` [Compound 137, 2,2-Dichloro-N-[3-[3-(2,3,6-trichlorophenyl)-5-isoxazolyl]phenyl]Acetamide] are < 5.00 and > 10 µM.
The like results for `COc1ccc(NC(=O)C(Cl)Cl)cc1-c1cc(-c2c(Cl)cccc2Cl)no1` [Compound 127, 2,2-Dichloro-N-[3-[3-(2,6-dichlorophenyl)-5-isoxazolyl]4-methoxyphenyl]Acetamide] were, in that order, > 5.00 and > 10 µM.
As for `O=C(Nc1cccc(-c2cc(-c3cc(C(F)(F)F)ccc3Cl)no2)c1)C(Cl)Cl` [Compound 141, 2,2-Dichloro-N-[3-[3-(2-chloro-5-trifluoromethylphenyl)-5-isoxazolyl]phenyl]Acetamide], in series [1] (Hepatitis C virus), the pIC50 was < 5.00. For the same compound, in series [2], the concentration for half-maximal inhibition (IC50) at 48 h was > 10 µM.
The like results for `Cc1cc(C)c(-c2cc(-c3cccc(NC(=O)C(Cl)Cl)c3)on2)c(C)c1` [Compound 69, 2,2-Dichloro-N-[3-[3-(2,4,6-trimethylphenyl)-5-isoxazolyl]phenyl]Acetamide] were, in that order, > 5.00 and 3 µM.
The corresponding values for `O=C(Nc1cccc(-c2cc(-c3c(C4CCCC4)cccc3C(F)(F)F)no2)c1)C(Cl)Cl` [Compound 105, 2,2-Dichloro-N-[3-[3-(2-cyclopentyl-6-trifluoromethylphenyl)-5-isoxazolyl]phenyl]Acetamide] are > 5.00 and > 5 µM.
The corresponding values for `O=C(Nc1cccc(-c2cc(-c3ccccc3OCc3ccccc3)no2)c1)C(Cl)Cl` [Compound 161, 2,2-Dichloro-N-[3-[3-(2-benzyloxyphenyl)-5-isoxazolyl]phenyl]Acetamide] are < 5.00 and > 10 µM.
Take `CC(C)c1cccc(C(F)(F)F)c1-c1cc(-c2cccc(NC(=O)C(Cl)Cl)c2)on1` [Compound 93, 2,2-Dichloro-N-[3-[3-(2-isopropyl-6-trifluoromethylphenyl)-5-isoxazolyl]phenyl]Acetamide]: in series [1] (Hepatitis C virus), the pIC50 was > 5.00. In addition, the IC50 at 48 h in series [2] is > 10 µM.
The like results for `Cc1cccc(C(F)(F)F)c1-c1cc(-c2cccc(NC(=O)C(Cl)Cl)c2)on1` [Compound 85, 2,2-Dichloro-N-[3-[3-(2-methyl-6-trifluoromethylphenyl)-5-isoxazolyl]phenyl]Acetamide] were, in that order, > 5.00 and > 10 µM.
As for `CN(C)C(=O)N1CCN(c2cccc(Cl)c2-c2cc(-c3cccc(NC(=O)C(Cl)Cl)c3)on2)CC1` [Compound 531], in series [1], the pIC50 was > 5.00.
On the same count and under the same terms, as for `CS(=O)(=O)N1CCN(c2cccc(Cl)c2-c2cc(-c3cccc(NC(=O)C(Cl)Cl)c3)on2)CC1` [Compound 529], the figure is > 5.00; as for `Nc1cccc(Cl)c1-c1cc(-c2cccc(NC(=O)C(Cl)Cl)c2)on1` [Compound 542], > 5.00; as for `O=C(Nc1cccc(-c2cc(-c3c(Cl)cccc3N3CCC(Cc4ccccc4)CC3)no2)c1)C(Cl)Cl` [Compound 637], > 5.00.
Same read-out and setting: as for `O=C(Nc1cccc(-c2cc(-c3c(Cl)cccc3Oc3cccnc3)no2)c1)C(Cl)Cl` [Compound 559], the figure is > 5.00; as for `O=C(Nc1cccc(-c2cc(-c3c(Cl)cccc3OCc3ccncc3)no2)c1)C(Cl)Cl` [Compound 604], > 5.00.
Same read-out and setting: as for `N#Cc1cccc(C(=O)N2CCN(c3cccc(Cl)c3-c3cc(-c4cccc(NC(=O)C(Cl)Cl)c4)on3)CC2)c1` [Compound 663], the figure is > 5.00.
Consider `CS(=O)(=O)N1CCCC(Oc2cccc(Cl)c2-c2cc(-c3cccc(NC(=O)C(Cl)Cl)c3)on2)C1` (centres unmarked) [Compound 586], for which the pIC50 in series [1] was > 5.00.
The same measure, in the same setting: for `COC(=O)C(NC(=O)c1cccc(Cl)c1-c1cc(-c2cccc(NC(=O)C(Cl)Cl)c2)on1)c1ccccc1` (centres unmarked) [Compound 693] the value was < 5.00; for `Cc1cc(OCCN2CCOCC2)cc(C)c1-c1cc(-c2cccc(NC(=O)C(Cl)Cl)c2)on1` [Compound 23, 2,2-Dichloro-N-[3-[3-[2,6-dimethyl-4-(N-morpholino-2-ethyleneoxy)phenyl]-5-isoxazolyl]phenyl]Acetamide], > 5.00.
The same measure, in the same setting: as for `O=C(Nc1cccc(-c2cc(-c3c(Cl)cccc3N3CCN(CCN4CCCCC4)CC3)no2)c1)C(Cl)Cl` [Compound 667], the figure is > 5.00; as for `O=C(Nc1cccc(-c2cc(-c3c(N4CCN(c5ccccn5)CC4)cccc3C(F)(F)F)no2)c1)C(Cl)Cl` [Compound 520], > 5.00.
As to `O=C(Nc1cccc(-c2cc(-c3c(Cl)cccc3N3CCc4ccccc4C3)no2)c1)C(Cl)Cl` [Compound 636], the pIC50 in series [1] was > 5.00.
`O=C(Nc1cccc(-c2cc(-c3c(Cl)cccc3N3CCN(c4ccccn4)CC3)no2)c1)C(Cl)Cl` [Compound 501]: in series [1], the pIC50 was > 5.00.
On the same count and under the same terms, as for `O=C(Nc1cccc(-c2cc(-c3c(Cl)cccc3NS(=O)(=O)c3ccc(Cl)cc3)no2)c1)C(Cl)Cl` [Compound 679], the figure is > 5.00.
The same measure, in the same setting: for `O=C(Nc1cccc(-c2cc(-c3c(Cl)cccc3N3CCN(C(=O)C4CCCO4)CC3)no2)c1)C(Cl)Cl` (centres unmarked) [Compound 643] the value was > 5.00.
The same measure, in the same setting: as for `O=C(Nc1cccc(-c2cc(-c3c(Cl)cccc3N3CCN(C(=O)Cc4cccnc4)CC3)no2)c1)C(Cl)Cl` [Compound 558], the figure is > 5.00; as for `O=C(Nc1cccc(-c2cc(-c3c(Cl)cccc3OCCC3CCNCC3)no2)c1)C(Cl)Cl` [Compound 640], > 5.00.
Take `O=C(Nc1cccc(-c2cc(-c3c(Cl)cccc3N3CCN(S(=O)(=O)C(F)(F)F)CC3)no2)c1)C(Cl)Cl` [Compound 567]: the pIC50 in series [1] is > 5.00.
Still for that read-out and setting: for `CC(C)C(=O)N1CCN(c2cccc(Cl)c2-c2cc(-c3cccc(NC(=O)C(Cl)Cl)c3)on2)CC1` [Compound 644] the value was > 5.00; for `O=C(Nc1cccc(-c2cc(-c3c(Cl)cccc3C(=O)N3CCOCC3)no2)c1)C(Cl)Cl` [Compound 683], > 5.00; for `O=C(O)c1cccc(Cl)c1-c1cc(-c2cccc(NC(=O)C(Cl)Cl)c2)on1` [Compound 687], < 5.00.
Consider `O=C(Nc1cccc(-c2cc(-c3c(Cl)cccc3N3CCN(c4ccc(Cl)cc4)CC3)no2)c1)C(Cl)Cl` [Compound 619], for which, in series [1], the pIC50 is > 5.00.
Same read-out and setting: for `O=C(Nc1cccc(Cl)c1-c1cc(-c2cccc(NC(=O)C(Cl)Cl)c2)on1)c1cccnc1` [Compound 562] the value was > 5.00; for `CN(C)CCN(C)c1cccc(Cl)c1-c1cc(-c2cccc(NC(=O)C(Cl)Cl)c2)on1` [Compound 131, 2-Dichloro-N-[3-[3-[2-chloro-6-(N,N-dimethylethylene-N′-methylamino)phenyl]-5-isoxazolyl]-phenyl]Acetamide], > 5.00.
With `COc1ccc(-c2cc(-c3c(Cl)cccc3Cl)no2)cc1NC(=O)C(Cl)Cl` [Compound 173, 2,2-Dichloro-N-[3-[3-(2,6-dichlorophenyl)-5-isoxazolyl]-6-methoxyphenyl]Acetamide], in series [1] (Hepatitis C virus), the pIC50 is > 5.00.

As usually defined, the pIC50 is the IC50 on a negative log10 scale, so that one unit is a factor of ten. For orientation: IC50 means the concentration that gives 50% inhibition.

These data come from patent publication US7115642B2, “Substituted diphenyl isoxazoles, pyrazoles and oxadiazoles useful for treating HCV infection” (priority 2003, dated 2006).
